Converted amounts (≈) assume the structure as drawn.
Assay: Kinetic solubility analysis
Type: physicochemical
Settings: 1× PBS, 24.2 °C, aqueous buffer, kinetic from dmso stock; pH 7.4 PBS, 1% DMSO, 24-hour incubation at ambient temperature
Description: Example 108: Kinetic Solubility Analysis
Buffer Preparation: 0.1 N HCl: Hydrochloric acid, 0.1 N standardized solution (MP Biomedicals part number 199569). 1×PBS, pH 7.4: Phosphate Buffered Saline (PBS) solution 10× (Fisher Bioreagent part number BP399-500) 50 mL was added to approximately 450 mL HPLC grade H2O. The volume of the solution was then adjusted to 500 mL for a total dilution factor of 1:10 and a final PBS concentration of 1×.
The final DMSO concentration was 1.0% (v/v) and maximum theoretical compound concentration is 100 μM (for compound stock concentration of 10 mM). The filter plate was sealed. Following 24-hour incubation at ambient temperature (24.2-27.5° C.), the samples were vacuum filtered and the filtrates were collected in a 96 well polypropylene plate for analysis. The collection plate was sealed for analysis. Filtrates were injected into the Antek 8060 chemiluminescent nitrogen detector for quantification. The results are reported in μM.
The filtrates were quantified with respect to this calibration curve. Each calculated solubility value was corrected for background nitrogen present in the DMSO and in the medium used to prepare the sample. All reported values for compounds containing adjacent nitrogen atoms in a ring structure were increased by approximately 25%.

Compound | solubility kinetic at 24 h
CCCCCCOC(=O)[C@](C)(Cc1ccccc1)NP(=O)(CO[C@H](C)Cn1cnc2c(N)ncnc21)N[C@@](C)(Cc1ccccc1)C(=O)OCCCCCC [Example 11, Dihexyl 2,2′-((((((R)-1-(6-amino-9H-purin-9-yl)propan-2-yl)oxy)methyl)phosphoryl)bis(azanediyl))(2S,2'S)-bis(2-methyl-3-phenylpropanoate)] | < 1 µg/mL
C[C@H](Cn1cnc2c(N)ncnc21)OCP(=O)(NC(C)(C)C(=O)O[C@H]1C[C@H](C(F)(F)F)C1)NC(C)(C)C(=O)O[C@H]1C[C@H](C(F)(F)F)C1 [Example 26, Bis(trans-3-(trifluoromethyl)cyclobutyl) 2,2′-((((((R)-1-(6-amino-9H-purin-9-yl)propan-2-yl)oxy)methyl)phosphoryl)bis(azanediyl))bis(2-methylpropanoate)] | 78 µg/mL (≈ 111 µM)
CCCCCCOC(=O)C(C)(C)NP(=O)(CO[C@H](C)Cn1cnc2c(NC(=O)OCCCCC)ncnc21)NC(C)(C)C(=O)OCCCCCC [Example 32, Dihexyl 2,2′-(((((1-(6-(((pentyloxy)carbonyl)amino)-9H-purin-9-yl)propan-2-yl)oxy)methyl)phosphoryl)bis(azanediyl))(R)-bis(2-methylpropanoate)] | < 1 µg/mL
C[C@H](Cn1cnc2c(N)ncnc21)OCP(=O)(NC(C)(C)C(=O)OC1CCCCC1)NC(C)(C)C(=O)OC1CCCCC1 [Example 40, Dicyclohexyl 2,2′-(((((1-(6-amino-9H-purin-9-yl)propan-2-yl)oxy)methyl)phosphoryl)bis(azanediyl))(R)-bis(2-methylpropanoate)] | 57 µg/mL (≈ 91.7 µM)
C[C@H](Cn1cnc2c(N)ncnc21)OCP(=O)(NC(C)(C)C(=O)OC1CC2(CCC2)C1)NC(C)(C)C(=O)OC1CC2(CCC2)C1 (stereo partly drawn) [Example 41, Di(spiro[3.3]heptan-2-yl) 2,2′-(((((1-(6-amino-9H-purin-9-yl)propan-2-yl)oxy)methyl)phosphoryl)bis(azanediyl))(R)-bis(2-methylpropanoate)] | 54 µg/mL (≈ 83.6 µM)
C[C@H](Cn1cnc2c(N)ncnc21)OCP(=O)(NC(C)(C)C(=O)OC1CC(C)(C)C1)NC(C)(C)C(=O)OC1CC(C)(C)C1 [Example 42, Bis(3,3-dimethylcyclobutyl) 2,2′-(((((1-(6-amino-9H-purin-9-yl)propan-2-yl)oxy)methyl)phosphoryl)bis(azanediyl))(R)-bis(2-methylpropanoate)] | 54 µg/mL (≈ 86.9 µM)
CC(C)OC(=O)C(C)(C)NP(=O)(CO[C@H](C)Cn1cnc2c(N)ncnc21)NC(C)(C)C(=O)OC(C)C [Example 43, Diisopropyl 2,2′-(((((1-(6-amino-9H-purin-9-yl)propan-2-yl)oxy)methyl)phosphoryl)bis(azanediyl))(R)-bis(2-methylpropanoate)] | 53 µg/mL (≈ 97.9 µM)
C[C@H](Cn1cnc2c(N)ncnc21)OCP(=O)(NC(C)(C)C(=O)OC1CCC(C)(C)CC1)NC(C)(C)C(=O)OC1CCC(C)(C)CC1 [Example 44, Bis(4,4-dimethylcyclohexyl) 2,2′-(((((1-(6-amino-9H-purin-9-yl)propan-2-yl)oxy)methyl)phosphoryl)bis(azanediyl))(R)-bis(2-methylpropanoate)] | 10 µg/mL (≈ 14.8 µM)
C[C@H](Cn1cnc2c(N)ncnc21)OCP(=O)(NC(C)(C)C(=O)OCC1CCCC1)NC(C)(C)C(=O)OCC1CCCC1 [Example 45, Bis(cyclopentylmethyl) 2,2′-(((((1-(6-amino-9H-purin-9-yl)propan-2-yl)oxy)methyl)phosphoryl)bis(azanediyl))(R)-bis(2-methylpropanoate)] | 64 µg/mL (≈ 103 µM)
C[C@H](Cn1cnc2c(N)ncnc21)OCP(=O)(NC(C)(C)C(=O)OC1CCC1)NC(C)(C)C(=O)OC1CCC1 [Example 47, Dicyclobutyl 2,2′-(((((1-(6-amino-9H-purin-9-yl)propan-2-yl)oxy)methyl)phosphoryl)bis(azanediyl))(R)-bis(2-methylpropanoate)] | 72 µg/mL (≈ 127 µM)
CCC(CC)COC(=O)C(C)(C)N[P@@](=O)(CO[C@H](C)Cn1cnc2c(N)ncnc21)NC1(C(=O)OCC(CC)CC)CC1 [Example 72, 2-Ethylbutyl 1-(((S)-((((R)-1-(6-amino-9H-purin-9-yl)propan-2-yl)oxy)methyl)((1-(2-ethylbutoxy)-2-methyl-1-oxopropan-2-yl)amino)phosphoryl)amino)cyclopropane-1-carboxylate] | 35 µg/mL (≈ 56.1 µM)

Results, then the molecule that gave them:

solubility kinetic at 24 h | Compound
53 µg/mL (≈ 88.7 µM) | C[C@H](Cn1cnc2c(N)ncnc21)OCP(=O)(NC(C)(C)C(=O)OCC(C)(C)C)NC(C)(C)C(=O)OCC(C)(C)C [Example 5]
49 µg/mL (≈ 82 µM) | CC(C)CCOC(=O)C(C)(C)NP(=O)(CO[C@H](C)Cn1cnc2c(N)ncnc21)NC(C)(C)C(=O)OCCC(C)C [Example 6, Diisopentyl 2,2′-(((((1-(6-amino-9H-purin-9-yl)propan-2-yl)oxy)methyl)phosphoryl)bis(azanediyl))(R)-bis(2-methylpropanoate)]
7 µg/mL (≈ 10.7 µM) | CCC(CC)CCOC(=O)C(C)(C)NP(=O)(CO[C@H](C)Cn1cnc2c(N)ncnc21)NC(C)(C)C(=O)OCCC(CC)CC [Example 7, Bis(3-ethylpentyl) 2,2′-(((((1-(6-amino-9H-purin-9-yl)propan-2-yl)oxy)methyl)phosphoryl)bis(azanediyl))(R)-bis(2-methylpropanoate)]
50 µg/mL (≈ 79.9 µM) | C[C@H](Cn1cnc2c(N)ncnc21)OCP(=O)(NC(C)(C)C(=O)OCCC(C)(C)C)NC(C)(C)C(=O)OCCC(C)(C)C [Example 8, Bis(3,3-dimethylbutyl) 2,2′-(((((1-(6-amino-9H-purin-9-yl)propan-2-yl)oxy)methyl)phosphoryl)bis(azanediyl))(R)-bis(2-methylpropanoate)]
7 µg/mL (≈ 10.7 µM) | CCCCCCOC(=O)[C@](C)(CC)NP(=O)(CO[C@H](C)Cn1cnc2c(N)ncnc21)N[C@@](C)(CC)C(=O)OCCCCCC [Example 10, Dihexyl 2,2′-((((((R)-1-(6-amino-9H-purin-9-yl)propan-2-yl)oxy)methyl)phosphoryl)bis(azanediyl))(2S,2′S)-bis(2-methylbutanoate)]
49 µg/mL (≈ 78.6 µM) | CCCCCCOC(=O)C(C)(C)NP(=O)(CO[C@H](C)Cn1cnc2c(N)ncnc21)NC1(C(=O)OCCCCCC)CC1 (stereo partly drawn) [Example 20, Hexyl 1-((((((R)-1-(6-amino-9H-purin-9-yl)propan-2-yl)oxy)methyl)((1-(hexyloxy)-2-methyl-1-oxopropan-2-yl)amino)phosphoryl)amino)cyclopropane-1-carboxylate]
36 µg/mL (≈ 52 µM) | CCCCCCOC(=O)C(C)(C)NP(=O)(CO[C@H](C)Cn1cnc2c(N)ncnc21)NC(C)(C)C(=O)O[C@H]1CC[C@H](C(F)(F)F)CC1 (stereo partly drawn) [Example 22, Hexyl 2-((((((R)-1-(6-amino-9H-purin-9-yl)propan-2-yl)oxy)methyl)((2-methyl-1-oxo-1-((trans-4-(trifluoromethyl)cyclohexyl)oxy)propan-2-yl)amino)phosphoryl)amino)-2-methylpropanoate]
84 µg/mL (≈ 119 µM) | C[C@H](Cn1cnc2c(N)ncnc21)OCP(=O)(NC(C)(C)C(=O)OCCCCC(F)(F)F)NC(C)(C)C(=O)OCCCCC(F)(F)F [Example 25, Bis(5,5,5-trifluoropentyl) 2,2′-(((((1-(6-amino-9H-purin-9-yl)propan-2-yl)oxy)methyl)phosphoryl)bis(azanediyl))(R)-bis(2-methylpropanoate)]
55 µg/mL (≈ 82.4 µM) | CCCCCCOC(=O)C(C)(C)NP(=O)(CO[C@H](C)Cn1cnc2c(NC(C)=O)ncnc21)NC(C)(C)C(=O)OCCCCCC [Example 28, Dihexyl 2,2′-(((((1-(6-acetamido-9H-purin-9-yl)propan-2-yl)oxy)methyl)phosphoryl)bis(azanediyl))(R)-bis(2-methylpropanoate)]
26 µg/mL (≈ 37.4 µM) | CCCCCCOC(=O)C(C)(C)NP(=O)(CO[C@H](C)Cn1cnc2c(NC(=O)CCC)ncnc21)NC(C)(C)C(=O)OCCCCCC [Example 29, Dihexyl 2,2′-(((((1-(6-butyramido-9H-purin-9-yl)propan-2-yl)oxy)methyl)phosphoryl)bis(azanediyl))(R)-bis(2-methylpropanoate)]
45 µg/mL (≈ 79 µM) | CCCCOC(=O)C(C)(C)NP(=O)(CO[C@H](C)Cn1cnc2c(N)ncnc21)NC(C)(C)C(=O)OCCCC [Example 38, Dibutyl 2,2′-(((((1-(6-amino-9H-purin-9-yl)propan-2-yl)oxy)methyl)phosphoryl)bis(azanediyl))(R)-bis(2-methylpropanoate)]
3 µg/mL (≈ 4.59 µM) | CC(C)CCCCOC(=O)C(C)(C)NP(=O)(CO[C@H](C)Cn1cnc2c(N)ncnc21)NC(C)(C)C(=O)OCCCCC(C)C [Example 68, Bis(5-methylhexyl) 2,2′-(((((1-(6-amino-9H-purin-9-yl)propan-2-yl)oxy)methyl)phosphoryl)bis(azanediyl))(R)-bis(2-methylpropanoate)]
1 µg/mL (≈ 1.47 µM) | CCCC(CCC)COC(=O)C(C)(C)NP(=O)(CO[C@H](C)Cn1cnc2c(N)ncnc21)NC(C)(C)C(=O)OCC(CCC)CCC [Example 69, Bis(2-propylpentyl) 2,2′-(((((1-(6-amino-9H-purin-9-yl)propan-2-yl)oxy)methyl)phosphoryl)bis(azanediyl))(R)-bis(2-methylpropanoate)]
